Consider 43 compounds from ChEMBL document CHEMBL5728383, “Isoquinoline ether compounds as mGluR4 allosteric potentiators, compositions, and methods of treating neurological dysfunction” (2021).

Chain of Metabotropic glutamate receptor 4 (Q14833 whole entry): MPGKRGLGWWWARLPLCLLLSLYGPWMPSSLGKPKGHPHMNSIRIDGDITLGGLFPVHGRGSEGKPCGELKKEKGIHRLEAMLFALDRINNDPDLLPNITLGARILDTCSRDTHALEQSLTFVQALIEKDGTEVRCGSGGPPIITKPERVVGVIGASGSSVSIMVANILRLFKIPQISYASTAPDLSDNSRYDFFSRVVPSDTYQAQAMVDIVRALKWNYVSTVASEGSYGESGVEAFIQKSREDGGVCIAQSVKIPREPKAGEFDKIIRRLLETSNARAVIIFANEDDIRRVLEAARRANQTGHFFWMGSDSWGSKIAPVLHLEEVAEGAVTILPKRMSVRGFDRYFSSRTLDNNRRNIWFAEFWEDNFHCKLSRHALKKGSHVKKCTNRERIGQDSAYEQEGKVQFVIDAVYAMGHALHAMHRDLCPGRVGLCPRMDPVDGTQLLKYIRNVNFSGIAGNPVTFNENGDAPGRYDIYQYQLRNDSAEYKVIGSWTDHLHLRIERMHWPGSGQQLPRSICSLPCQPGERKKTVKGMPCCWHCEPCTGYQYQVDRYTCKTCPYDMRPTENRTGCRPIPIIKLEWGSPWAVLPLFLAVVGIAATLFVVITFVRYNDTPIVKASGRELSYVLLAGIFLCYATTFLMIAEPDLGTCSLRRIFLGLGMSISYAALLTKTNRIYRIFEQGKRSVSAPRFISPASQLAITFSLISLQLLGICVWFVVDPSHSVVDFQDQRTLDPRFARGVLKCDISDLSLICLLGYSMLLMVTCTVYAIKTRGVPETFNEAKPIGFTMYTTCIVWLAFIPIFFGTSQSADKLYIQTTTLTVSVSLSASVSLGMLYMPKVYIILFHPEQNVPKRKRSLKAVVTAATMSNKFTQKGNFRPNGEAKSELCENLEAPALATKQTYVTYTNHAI

This experiment has as its target Metabotropic glutamate receptor 4 (Homo sapiens, UniProt Q14833). In words: Receptor Activity Assay: The disclosed compounds and compositions can be evaluated for their ability to act as a potentiator of metabotropic glutamate receptor activity, in particular mGluR4 activity, by any suitable known methodology known in the art. For example, Chinese Hamster Ovary (CHO) cells transfected with human mGluR4 or HEK cells co-transfected with rat mGuR4 and the G-protein regulated Inwardly Rectifying Potassium channel (GIRK) were plated in clear bottom assay plates for assay in a Hamamatsu FDSS Fluorometric Plate Reader. The cells were loaded with either a Ca2+-sensitive fluorescent dye or the thallium responsive dye and the plates were washed and placed into a suitable kinetic plate reader. For human mGuR4 assays, a fluorescence baseline was established for 3-5 seconds, the disclosed compounds were then added to the cells, and the response in cells was measured. Approximately two and a half minutes later, a concentration of mGuR4 orthosteric agonist (e.g. glutamate or L-AP4) eliciting approximately 20% (EC20) of the maximal agonist response was added to the cells, and the response was measured. Two minutes later, a concentration of mGluR4 agonist (e.g. glutamate or L-AP4) eliciting 80% (EC80) of the maximal agonist response was added to the cells, and the response was measured. For rat mGuR4/GIRK experiments, a baseline was established for approximately five seconds, disclosed compounds were added, and either an EC20 or EC80 concentration of agonist was added approximately two and one half minutes later.
Turning to `c1cnc2c(Nc3ccc4c(OCC5CCOC5)nccc4c3)n[nH]c2c1` (stereo not drawn), the EC50 (as a rule, the concentration at which the effect is half-maximal) stood at 12 nM.
The result for `c1cc2cc(Nc3n[nH]c4nccnc34)ccc2c(O[C@@H]2CCOC2)n1` reads 43.6 nM; that for `Fc1cnc2c(Nc3ccc4c(O[C@H]5CCOC5)nccc4c3)n[nH]c2c1`, 82.3 nM; that for `c1cnc2[nH]nc(Nc3ccc4c(OCC5COCCO5)nccc4c3)c2c1` (stereo not drawn), 121 nM.
For the compound `CO[C@H](C)COc1nccc2cc(Nc3n[nH]c4nccnc34)ccc12`, the EC50 was 17.5 nM.
Next, `c1cnc2[nH]nc(Nc3ccc4c(O[C@@H]5CCOC5)nccc4c3)c2c1`: 64 nM; `c1cnc2c(Nc3ccc4c(O[C@@H]5CCCOC5)nccc4c3)n[nH]c2c1`: 31.9 nM.
Consider `c1cc2cc(Nc3n[nH]c4nccnc34)ccc2c(OCC2CCOC2)n1` (stereo not drawn), for which the EC50 turned out to be 10.4 nM.
With `C[C@H]1OCC[C@H]1Oc1nccc2cc(Nc3n[nH]c4ncccc34)ccc12`, the EC50 was found to be 154 nM.
For the compound `CCOCCOc1nccc2cc(Nc3n[nH]c4nccnc34)ccc12`, the EC50 came to 21.5 nM.
As for `C[C@@H]1C[C@H](Oc2nccc3cc(Nc4n[nH]c5cccnc45)ccc23)CO1`, the EC50 is 48.3 nM.
For `c1cnc2c(Nc3ccc4c(OCC5CCCOC5)nccc4c3)n[nH]c2c1` (stereo not drawn), the EC50 amounted to 15.7 nM.
In the case of `Fc1cnc2c(Nc3ccc4c(OCC5COCCO5)nccc4c3)n[nH]c2c1` (stereo not drawn), the EC50 stood at 35.9 nM.
Turning to `c1cnc2[nH]nc(Nc3ccc4c(OCC5CCCCO5)nccc4c3)c2c1` (stereo not drawn), the EC50 came to 75.2 nM.
In the case of `COCCOc1nccc2cc(Nc3n[nH]c4ncccc34)ccc12`, the EC50 was 51.5 nM.
Next, `COCCOc1nccc2cc(Nc3n[nH]c4ccccc34)ccc12`: 76.9 nM.
The result for `C[C@H]1C[C@H](Oc2nccc3cc(Nc4n[nH]c5cccnc45)ccc23)CO1` reads 26.9 nM; that for `CCOCCOc1nccc2cc(Nc3n[nH]c4ncccc34)ccc12`, 48.4 nM.
The result for `C[C@H]1OCC[C@H]1Oc1nccc2cc(Nc3n[nH]c4cccnc34)ccc12` reads 55.9 nM; that for `c1cnc2c(Nc3ccc4c(OC5CCOCC5)nccc4c3)n[nH]c2c1`, 12.6 nM; that for `COCCOc1nccc2cc(Nc3n[nH]c4cc(F)cnc34)ccc12`, 69 nM.
Turning to `COCCOc1nccc2cc(Nc3n[nH]c4cccnc34)ccc12`, the EC50 turned out to be 19.9 nM.
`c1cnc2c(Nc3ccc4c(OCC5CCOCC5)nccc4c3)n[nH]c2c1`: the EC50 was found to be 11.6 nM.
The result for `CO[C@H](C)COc1nccc2cc(Nc3n[nH]c4ncccc34)ccc12` reads 77.1 nM.
The result for `c1cnc2c(Nc3ccc4c(O[C@@H]5CCOC5)nccc4c3)n[nH]c2c1` reads 36.1 nM; that for `c1cnc2c(Nc3ccc4c(O[C@H]5CCCOC5)nccc4c3)n[nH]c2c1`, 27.3 nM; that for `C[C@@H]1C[C@H](Oc2nccc3cc(Nc4n[nH]c5ncccc45)ccc23)CO1`, 152 nM.
Next, `c1cnc2c(Nc3ccc4c(O[C@H]5CCOC5)nccc4c3)n[nH]c2c1`: 37.6 nM; `c1cc2cc(Nc3n[nH]c4nccnc34)ccc2c(O[C@H]2CCOC2)n1`: 22.1 nM.
For the compound `COCCOc1nccc2cc(Nc3n[nH]c4ncc(F)cc34)ccc12`, the EC50 turned out to be 82.3 nM.
The result for `C[C@H]1C[C@H](Oc2nccc3cc(Nc4n[nH]c5ncccc45)ccc23)CO1` reads 70.7 nM; that for `Fc1cnc2[nH]nc(Nc3ccc4c(OC5CCOCC5)nccc4c3)c2c1`, 118 nM.
With `c1cnc2[nH]nc(Nc3ccc4c(O[C@H]5CCOC5)nccc4c3)c2c1`, the EC50 came out at 44.2 nM.
The result for `c1cnc2c(Nc3ccc4c(OCC5COCCO5)nccc4c3)n[nH]c2c1` (stereo not drawn) reads 12.6 nM.
For the compound `COCCOc1nccc2cc(Nc3n[nH]c4nccnc34)ccc12`, the EC50 worked out at 35.2 nM.
As for `c1cnc2[nH]nc(Nc3ccc4c(OCC5CCOCC5)nccc4c3)c2c1`, the EC50 came to 45.9 nM.
The result for `c1cc2cc(Nc3n[nH]c4nccnc34)ccc2c(OCC2CCOCC2)n1` reads 16.1 nM; that for `CO[C@H](C)COc1nccc2cc(Nc3n[nH]c4cccnc34)ccc12`, 14.5 nM; that for `c1cc2cc(Nc3n[nH]c4nccnc34)ccc2c(OCC2COCCO2)n1` (stereo not drawn), 28.5 nM.
Regarding `c1cnc2[nH]nc(Nc3ccc4c(OCCN5CCOCC5)nccc4c3)c2c1`, the EC50 stood at 148 nM.
As to `CCOCCOc1nccc2cc(Nc3n[nH]c4cccnc34)ccc12`, the EC50 stood at 22.3 nM.
Take `c1cnc2[nH]nc(Nc3ccc4c(OCC5CCOC5)nccc4c3)c2c1` (stereo not drawn): the EC50 was determined as 54.3 nM.
Next, `c1cnc2c(Nc3ccc4c(OCCN5CCOCC5)nccc4c3)n[nH]c2c1`: 41.2 nM.
